Results from PubChem BioAssay AID2060907 (Molecular Pharmacology Branch, DTP, NCI, 2025).
“And” between values parts separate entries of the source, which are not always exact repeats. Equal values may be shown once.

Test system: 388556-164-R-J1-PDC complex spheroid viability
Experiment: Anticancer human tumor 388556-164-R-J1-PDC patient-derived colon adenocarcinoma cell line growth inhibition [RAS]
Settings: for viability, T/C: stronger effect = lower value; active = viability on the fitted dose curve at most 10% of control; inactive = the rest
Method in brief: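 Tumour cells grown as complex spheroids with HUVEC endothelial cells and mesenchymal stem cells, treated with RAS pathway inhibitor combinations. Each agent spans half-log steps from near clinical Cmax, or 10 microM where Cmax is unknown.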
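Also: spheroids exposed to compound for 7 days before readout.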
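For viability, T/C in this document: 100% = DMSO vehicle control luminescence.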

C=CC(=O)Nc1cc(Nc2nccc(-c3cn(C)c4ccccc34)n2)c(OC)cc1N(C)CCN(C)C + CCn1c(-c2cc(N3CCN(C)CC3)cnc2C(C)OC)c2c3cc(ccc31)-c1csc(n1)CC(NC(=O)C1CC1C)C(=O)N1CCCC(N1)C(=O)OCC(C)(C)C2
416 nM: IC50 (curve of first compound, second compound 0.00949 µM)
< 3.16 nM: IC50 (curve of first compound, second compound 0.0949 µM) | IC50 (curve of first compound, second compound 0.3 µM)
480 nM: IC50 (curve of first compound, second compound 0.003 µM)
inactive: viability, T/C (second compound 0.000949 µM, first compound 0.00316 µM) 92.8% | viability, T/C (second compound 0.000949 µM, first compound 0.01 µM) 92.1% | viability, T/C (second compound 0.000949 µM, first compound 0.0316 µM) 93.5% | viability, T/C (second compound 0.000949 µM, first compound 0.1 µM) 79.8% | viability, T/C (second compound 0.000949 µM, first compound 0.316 µM) 60.4% | viability, T/C (second compound 0.000949 µM, first compound 1 µM) 46.4% | viability, T/C (second compound 0.003 µM, first compound 0.00316 µM) 91.7% | viability, T/C (second compound 0.003 µM, first compound 0.01 µM) 90.3% | viability, T/C (second compound 0.003 µM, first compound 0.0316 µM) 75.3% | viability, T/C (second compound 0.003 µM, first compound 0.1 µM) 74% | viability, T/C (second compound 0.003 µM, first compound 0.316 µM) 56.4% | viability, T/C (second compound 0.003 µM, first compound 1 µM) 38.1% | viability, T/C (second compound 0.00949 µM, first compound 0.00316 µM) 79.2% | viability, T/C (second compound 0.00949 µM, first compound 0.01 µM) 78.9% | viability, T/C (second compound 0.00949 µM, first compound 0.0316 µM) 65.8% | viability, T/C (second compound 0.00949 µM, first compound 0.1 µM) 66.4% | viability, T/C (second compound 0.00949 µM, first compound 0.316 µM) 60.5% | viability, T/C (second compound 0.00949 µM, first compound 1 µM) 28.3% | viability, T/C (second compound 0.03 µM, first compound 0.00316 µM) 62.1% | viability, T/C (second compound 0.03 µM, first compound 0.01 µM) 50.8% | viability, T/C (second compound 0.03 µM, first compound 0.0316 µM) 54.9% | viability, T/C (second compound 0.03 µM, first compound 0.1 µM) 45.8% | viability, T/C (second compound 0.03 µM, first compound 0.316 µM) 36.1% | viability, T/C (second compound 0.03 µM, first compound 1 µM) 27.3% | viability, T/C (second compound 0.0949 µM, first compound 0.00316 µM) 39.4% | viability, T/C (second compound 0.0949 µM, first compound 0.01 µM) 42.7% | viability, T/C (second compound 0.0949 µM, first compound 0.0316 µM) 46.8% | viability, T/C (second compound 0.0949 µM, first compound 0.1 µM) 33.1% | viability, T/C (second compound 0.0949 µM, first compound 0.316 µM) 28.2% | viability, T/C (second compound 0.0949 µM, first compound 1 µM) 22.8% | viability, T/C (second compound 0.3 µM, first compound 0.00316 µM) 32.2% | viability, T/C (second compound 0.3 µM, first compound 0.01 µM) 28.5% | viability, T/C (second compound 0.3 µM, first compound 0.0316 µM) 30.8% | viability, T/C (second compound 0.3 µM, first compound 0.1 µM) 25.1% | viability, T/C (second compound 0.3 µM, first compound 0.316 µM) 25.7% | viability, T/C (second compound 0.3 µM, first compound 1 µM) 24%
41.8 nM: IC50 (curve of first compound, second compound 0.03 µM)
745 nM: IC50 (curve of first compound, second compound 0.000949 µM)

CC(Nc1ccc2c(c1)OCCn1cc(N3C(=O)OCC3C(F)F)nc1-2)C(N)=O (stereo unspecified) + C#Cc1c(F)ccc2cc(O)cc(-c3ncc4c(N5CC6CCC(C5)N6)nc(OCC56CCCN5CC(F)C6)nc4c3F)c12
inactive: viability, T/C (second compound 0.0316 µM, first compound 0.0316 µM) 94.9% | viability, T/C (second compound 0.0316 µM, first compound 0.1 µM) 95.5% | viability, T/C (second compound 0.0316 µM, first compound 0.316 µM) 94% | viability, T/C (second compound 0.0316 µM, first compound 1 µM) 78.8% | viability, T/C (second compound 0.0316 µM, first compound 3.16 µM) 76.6% | viability, T/C (second compound 0.0316 µM, first compound 10 µM) 66.6% | viability, T/C (second compound 0.1 µM, first compound 0.0316 µM) 93.6% | viability, T/C (second compound 0.1 µM, first compound 0.1 µM) 90.7% | viability, T/C (second compound 0.1 µM, first compound 0.316 µM) 83.3% | viability, T/C (second compound 0.1 µM, first compound 1 µM) 81% | viability, T/C (second compound 0.1 µM, first compound 3.16 µM) 77% | viability, T/C (second compound 0.1 µM, first compound 10 µM) 62.3% | viability, T/C (second compound 0.316 µM, first compound 0.0316 µM) 94.8% | viability, T/C (second compound 0.316 µM, first compound 0.1 µM) 84.3% | viability, T/C (second compound 0.316 µM, first compound 0.316 µM) 74.2% | viability, T/C (second compound 0.316 µM, first compound 1 µM) 69.9% | viability, T/C (second compound 0.316 µM, first compound 3.16 µM) 72% | viability, T/C (second compound 0.316 µM, first compound 10 µM) 51.9% | viability, T/C (second compound 1 µM, first compound 0.0316 µM) 82.1% | viability, T/C (second compound 1 µM, first compound 0.1 µM) 89.9% | viability, T/C (second compound 1 µM, first compound 0.316 µM) 58.1% | viability, T/C (second compound 1 µM, first compound 1 µM) 69.4% | viability, T/C (second compound 1 µM, first compound 3.16 µM) 69.2% | viability, T/C (second compound 1 µM, first compound 10 µM) 43.6% | viability, T/C (second compound 3.16 µM, first compound 0.0316 µM) 82.4% | viability, T/C (second compound 3.16 µM, first compound 0.1 µM) 63.2% | viability, T/C (second compound 3.16 µM, first compound 0.316 µM) 64.2% | viability, T/C (second compound 3.16 µM, first compound 1 µM) 59.5% | viability, T/C (second compound 3.16 µM, first compound 3.16 µM) 53.3% | viability, T/C (second compound 3.16 µM, first compound 10 µM) 38.4% | viability, T/C (second compound 10 µM, first compound 0.0316 µM) 59.4% | viability, T/C (second compound 10 µM, first compound 0.1 µM) 57.2% | viability, T/C (second compound 10 µM, first compound 0.316 µM) 55.1% | viability, T/C (second compound 10 µM, first compound 1 µM) 50.8% | viability, T/C (second compound 10 µM, first compound 3.16 µM) 29.5% | viability, T/C (second compound 10 µM, first compound 10 µM) 31.1%
1040 nM: IC50 (curve of first compound, second compound 10 µM)
2960 nM: IC50 (curve of first compound, second compound 3.16 µM)
8110 nM: IC50 (curve of first compound, second compound 1 µM)
> 10000 nM: IC50 (curve of first compound, second compound 0.0316 µM) | IC50 (curve of first compound, second compound 0.1 µM) | IC50 (curve of first compound, second compound 0.316 µM)

CCN1CCN(Cc2ccc(Nc3ncc(F)c(-c4cc(F)c5nc(C)n(C(C)C)c5c4)n3)nc2)CC1
inactive: viability, T/C (compound 0.00316 µM) 99% and 107% and 91.4% | viability, T/C (compound 0.01 µM) 103% and 96.9% and 102% | viability, T/C (compound 0.0316 µM) 100% and 93.8% and 103% | viability, T/C (compound 0.1 µM) 97.8% and 98.6% and 93.7% | viability, T/C (compound 0.316 µM) 83.3% and 90.2% and 96.2% | viability, T/C (compound 1 µM) 91.3% and 82.5% and 92.3%
> 1000 nM: IC50 (curve of compound)
